Measurements published in ChEMBL document CHEMBL3085759, “Structure-activity relationship (SAR) and preliminary mode of action studies of 3-substituted benzylthioquinolinium iodide as anti-opportunistic infection agents” (Eur J Med Chem, 2013).
Values after ≈ are worked out from the molar mass of the structure shown. Active and inactive are the calls of the source. The calls are words filed in the database; no cut-off is given here.

What was measured:
[1] = test system: Saccharomyces cerevisiae; assay: Antimicrobial activity against Saccharomyces cerevisiae expressing msh2 mutant gene assessed as increase in sensitivity measured as survival at 20 umol/L by spectrophotometry relative to wild type; format: functional
[2] = test system: Saccharomyces cerevisiae; assay: Antimicrobial activity against Saccharomyces cerevisiae expressing ydj1 mutant gene assessed as sensitivity at 50 umol/L by spectrophotometry; format: functional, organism-based
[3] = test system: Saccharomyces cerevisiae; assay: Antimicrobial activity against Saccharomyces cerevisiae expressing snf2 mutant gene assessed as sensitivity at 50 umol/L by spectrophotometry; format: functional, organism-based
[4] = test system: Saccharomyces cerevisiae; assay: Antimicrobial activity against Saccharomyces cerevisiae expressing msh2 mutant gene assessed as sensitivity at 50 umol/L by spectrophotometry; format: functional, organism-based
[5] = test system: Saccharomyces cerevisiae; assay: Antimicrobial activity against Saccharomyces cerevisiae expressing rad52 mutant gene assessed as sensitivity at 50 umol/L by spectrophotometry; format: functional, organism-based
[6] = test system: Saccharomyces cerevisiae; assay: Antimicrobial activity against wild type Saccharomyces cerevisiae assessed as sensitivity at 50 umol/L by spectrophotometry; format: functional, organism-based
[7] = test system: Saccharomyces cerevisiae; assay: Antimicrobial activity against Saccharomyces cerevisiae expressing ydj1 mutant gene assessed as sensitivity at 20 umol/L by spectrophotometry; format: functional, organism-based
[8] = test system: Saccharomyces cerevisiae; assay: Antimicrobial activity against Saccharomyces cerevisiae expressing msh2 mutant gene assessed as sensitivity at 20 umol/L by spectrophotometry; format: functional, organism-based
[9] = test system: Saccharomyces cerevisiae; assay: Antimicrobial activity against Saccharomyces cerevisiae expressing snf2 mutant gene assessed as increase in sensitivity at 20 umol/L by spectrophotometry relative to wild type; format: functional
[10] = test system: Saccharomyces cerevisiae; assay: Antimicrobial activity against Saccharomyces cerevisiae expressing rad52 mutant gene assessed as increase in sensitivity at 20 umol/L by spectrophotometry relative to wild type; format: functional
[11] = Selectivity index, ratio of TC50 for african green monkey Vero cells to MIC for Aspergillus fumigatus ATCC 204305; format: toxicity, cell-based; settings: read-out: Selectivity Index
[12] = test system: Cryptococcus neoformans; assay: Antimicrobial activity against Cryptococcus neoformans ATCC 90113 by Alamar blue method; format: functional, organism-based
[13] = test system: Nakaseomyces glabratus; assay: Antimicrobial activity against Candida glabrata by Alamar blue method; format: functional, organism-based
[14] = test system: Pichia kudriavzevii; assay: Antimicrobial activity against Candida krusei ATCC 6258 by Alamar blue method; format: functional, organism-based
[15] = test system: Aspergillus fumigatus; assay: Antimicrobial activity against Aspergillus fumigatus ATCC 204305 by Alamar blue method; format: functional, organism-based
[16] = test system: Candida albicans; assay: Antimicrobial activity against Candida albicans ATCC 90028 by Alamar blue method; format: functional, organism-based
[17] = in vitro; settings: monkey, Vero cells
Description: Selectivity index, ratio of TC50 for african green monkey Vero cells to IC50 for Aspergillus fumigatus ATCC 204305

[18] = test system: Saccharomyces cerevisiae; assay: Antimicrobial activity against Saccharomyces cerevisiae expressing ydj1 mutant gene assessed as increase in sensitivity at 20 umol/L by spectrophotometry relative to wild type; format: functional
[19] = test system: Saccharomyces cerevisiae; assay: Antimicrobial activity against Saccharomyces cerevisiae expressing msh2 mutant gene assessed as increase in sensitivity at 20 umol/L by spectrophotometry relative to wild type; format: functional
[20] = test system: Saccharomyces cerevisiae; assay: Antimicrobial activity against wild type Saccharomyces cerevisiae assessed as increase in sensitivity measured as survival at 20 umol/L by spectrophotometry relative to control; format: functional
[21] = test system: Pichia kudriavzevii; assay: Ratio of fluconazole MFC to compound MFC for Candida krusei ATCC 6258 by Alamar blue method; format: functional
[22] = test system: Pichia kudriavzevii; assay: Ratio of amphotericin B IC50 to compound IC50 for Candida krusei ATCC 6258 by Alamar blue method; format: functional
[23] = test system: Cryptococcus neoformans; assay: Ratio of amphotericin B IC50 to compound IC50 for Cryptococcus neoformans ATCC 90113 by Alamar blue method; format: functional
[24] = test system: Mycobacterium intracellulare; assay: Antimicrobial activity against Mycobacterium intracellulare ATCC 23068 by Alamar blue method; format: functional, organism-based
[25] = test system: Staphylococcus aureus; assay: Antimicrobial activity against methicillin-resistant Staphylococcus aureus ATCC 33591 by Alamar blue method; format: functional, organism-based
[26] = test system: Staphylococcus aureus; assay: Antimicrobial activity against Staphylococcus aureus ATCC 29213 by Alamar blue method; format: functional, organism-based; settings: Staphylococcus aureus, ATCC 29213
[27] = Selectivity index, ratio of TC50 for african green monkey Vero cells to IC50 for Cryptococcus neoformans ATCC 90113; format: toxicity, cell-based; settings: read-out: Selectivity Index
[28] = Cytotoxicity against african green monkey Vero cells after 48 hrs by Neutral Red dye assay; format: cell-based; settings: chlorocebus sabaeus, read-out: TC50

In the case of `C[n+]1c2ccccc2cc2[n-]c3ccccc3c21` [CRYPTOLEPINE], the Activity [1] is reported as 29%, the Activity [2] is reported as “Active” and the Activity [3] is reported as “Active”. For the same molecule, the Activity [4] was “Active”, the Activity [5] was “Active” and the Activity [6] was “Active”. The Activity [7] was “inactive”, the Activity [8] was “inactive” and the “fold change (FC)” value [9] was 1.7. For the same molecule, the “fold change (FC)” value [10] was 3.5, the selectivity ratio [11] was less than 0.13 and the MFC [12] was greater than 25 mg/L. The MIC [12] was 12.5 mg/L (≈ 53.8 µM).

In the case of `C[C@@H]1[C@H](O)[C@@H](C)/C=C/C=C/C=C/C=C/C=C/C=C/C=C/[C@H](O[C@@H]2O[C@H](C)[C@@H](O)[C@H](N)[C@@H]2O)C[C@@H]2O[C@](O)(C[C@@H](O)C[C@@H](O)[C@H](O)CC[C@@H](O)C[C@@H](O)CC(=O)O[C@H]1C)C[C@H](O)[C@H]2C(=O)O` [AMPHOTERICIN B], the IC50 [13] is reported as 0.22 mg/L (≈ 0.238 µM), the MFC [13] is reported as 1.3 mg/L (≈ 1.41 µM) and the MIC [13] is reported as 0.63 mg/L (≈ 0.682 µM). It also gave an IC50 [14] of 0.22 mg/L (≈ 0.238 µM), an MFC [14] of 1.3 mg/L (≈ 1.41 µM) and an MIC [14] of 0.62 mg/L (≈ 0.671 µM). For the same molecule, the MFC [15] was 5 mg/L (≈ 5.41 µM), the MIC [15] was 1.3 mg/L (≈ 1.41 µM) and the IC50 [12] was 0.2 mg/L (≈ 0.216 µM). The MFC [12] was 0.63 mg/L (≈ 0.682 µM), the MIC [12] was 0.63 mg/L (≈ 0.682 µM) and the MFC [16] was 1.3 mg/L (≈ 1.41 µM). The MIC [16] was 0.62 mg/L (≈ 0.671 µM) and the selectivity ratio [17] was 38.

In the case of `Clc1ccc(CSc2cc3ccccc3[n+](CCCCCC3CCCCC3)c2)cc1.[I-]`, the “fold change (FC)” value [18] is reported as 7.5, the “fold change (FC)” value [9] is reported as 10 and the “fold change (FC)” value [19] is reported as 1.1. For the same molecule, the “fold change (FC)” value [10] was 2.9, the Activity [20] was 31% and the “Ratio IC50” value [21] was 310. For the same molecule, the “Ratio IC50” value [22] was 3, the “Ratio IC50” value [23] was 4 and the IC50 [24] was 1.6 mg/L. The MBC [24] was 2.5 mg/L, the MIC [24] was 2.5 mg/L and the IC50 [25] was 0.06 mg/L. It also gave an MBC [25] of 0.31 mg/L, an MIC [25] of 0.16 mg/L and an MBC [26] of 0.31 mg/L. The MIC [26] was 0.16 mg/L, the IC50 ([26]; read-out: IC50) was 0.05 mg/L and the IC50 [13] was 0.44 mg/L. The MFC [13] was 1.3 mg/L, the MIC [13] was 1.3 mg/L and the IC50 [14] was 0.07 mg/L. The MFC [14] was 0.16 mg/L, the MIC [14] was 0.16 mg/L and the selectivity ratio [27] was 26. For the same molecule, the CC50 at 48 h [28] was 1.3 mg/L, the IC50 [15] was 0.69 mg/L and the MFC [15] was 1.3 mg/L. It also gave an MIC [15] of 1.3 mg/L, an MFC [12] of 0.08 mg/L and an MIC [12] of 0.08 mg/L. It also gave an IC50 [16] of 0.33 mg/L, an MFC [16] of 0.63 mg/L and an MIC [16] of 0.63 mg/L.
